In US20240016946A1, “DRUG-LOADED MACROMOLECULE AND PREPARATION METHOD THEREFOR” (SHANGHAI SENHUI MEDICINE CO., LTD., priority 2020, published 2024):
Values joined by “and” are separate entries in the source; they are usually repeats but may differ in a detail not shown here. Equal values may be shown once.

Columns and labels:
platelet (PLT) = assay: Effect of single intravenous injection on platelet count in beagle dogs (Test Example 5); type: in vivo
Protocol: Method of administration: the weight was measured and the dosing amount was calculated based on the weight; the administration regimen is shown in Table 13 below. The drugs were slowly administered by intravenous injection. Blood was collected from the jugular vein or by other suitable means, about 1 mL per sample.

[1] = Pharmacokinetic study, single intravenous injection to beagle dogs, docetaxel macromolecules (Test Example 2); type: in vivo; conditions: single IV 3 mg/kg, free docetaxel in plasma, mean (1 male + 1 female)
Protocol: Docetaxel (84 mg/vial, commercially available) was dissolved in 5% (final volume) DMSO+30% PEG300+5% Tween 80+60% deionized water to obtain 0.6 mg/mL formulations for intravenous injection.
Beagle dogs, non-naïve, sourced from Medicilon: 999M-004.
Method of administration: the weight was measured and the dosing amount was calculated based on the weight. The drugs were slowly administered by intravenous injection. Blood was collected from the jugular vein or by other suitable means, about 1 mL per sample. Plasma samples were collected before administration and at different time points after administration and tested for free docetaxel level in plasma. For the docetaxel group, collection was performed before administration and at 0.083 h, 0.5 h, 1 h, 2 h, 4 h, 6 h, 8 h and 24 h after administration.

[2] = Hematological analysis (complete blood count) in the A549 subcutaneous tumor graft model (Test Example 3)
Protocol: After the last administration, plasma was collected at the time points designated in Table 7 (EDTA anticoagulant tubes were used (the esterase inhibitor DDVP was added at the time of blood collection)). After plasma collection at the last time point was complete, the mice were euthanized, and tumors were collected, snap frozen and stored.

[3] = Pharmacokinetic study, single intravenous injection to rats (Test Example 1); type: in vivo, SD rats
Protocol: • (1) Preparation of docetaxel: commercially available docetaxel injection (0.5 mL:20 mg) was diluted to 4 mg/mL with normal saline; • (2) Preparation of other test compounds: the compounds were dissolved in DMSO with a final concentration of 5%, and the solutions were diluted to 4 mg/mL with normal saline.
Female SD rats, weighing 160-180 g, 6 weeks old, SPF
Plasma samples were separated, and the esterase inhibitor DDVP was added. The samples were stored at −80° C. and tested for docetaxel level (N=3).

[4] = test system: human lung cancer cell A549; assay: Antitumor effect in subcutaneous tumor graft model of human lung cancer cell A549 (Test Example 3); type: in vivo, BALB/C nude mice; conditions: for Tumor volume: i.v. QW × 4 doses, docetaxel 20, 1-Z00 20, 1-Z00-J 10 mg/kg
Protocol: Samples are prepared according to Table 5 below.
BALB/C nude mice, female, 6-7 week old (the age when tumor cell inoculation was performed), weighing 16.5-22.6 g, purchased from GemPharmatech Co., Ltd., certificate No. 320727210100243463. Housing environment: SPF.
A549 cells (National Collection of Authenticated Cell Cultures/Cell Bank of Shanghai Institutes for Biological Sciences (cellbank.org.cn, SIBS)) were cultured in an F12K medium (Gibco) containing 10% fetal bovine serum. Cells were collected when growing at the exponential phase and resuspended in PBS to a suitable concentration for use in subcutaneous tumor inoculation in mice.
5×10^6 A549 cells were subcutaneously inoculated into the right side of female mice (inoculation volume: 0.1 mL/mouse). The day of inoculation was defined as day 0. When the mean tumor volume was 142.96 mm^3 (on day 13 after cell inoculation), the mice were randomly grouped according to tumor size as shown in Table 6 below (dosing volume: 10 μL/g).
After tumor inoculation, routine monitoring items included the effect of tumor growth and treatment on the normal behavior of animals, including activity, food intake and water intake, weight gain or loss (body weight was measured twice a week), abnormalities in eyes, hair, etc. Clinical symptoms observed during the experiment were all recorded in the raw data. Tumor volume calculation formula: tumor volume (mm^3)=½×(a×b^2) (where a represents long diameter and b represents short diameter). In the experiment, data collection, including measurement of tumors' long and short diameters and animals' body weight, was performed using StudyDirector™ (version: 3.1.399.19; supplier: Studylog System, Inc., S. San Francisco, CA, USA) software. Raw data measured by scales and vernier calipers were directly imported into the software. Any changes in the data were recorded in the software.
When the body weight of an individual animal decreased by >20%, it was euthanized according to animal welfare.
Relative tumor proliferation rate, T/C (%), refers to the percentage value of the relative tumor volume or tumor weight of the treatment group and the control group at a certain time point. The calculation formula is: T/C %=TRTV/CRTV×100% (TRTV: mean RTV of treatment group; CRTV: mean RTV of control group; RTV=Vt/V0, V0 is the tumor volume of the animal at the time of grouping, and Vt is the tumor volume of the animal after treatment).
All the results are expressed as mean tumor volume±SEM (standard error of the mean). The best point of drug treatment (usually after the last administration) was selected for statistical analysis between different groups. A two-way ANOVA was used to determine whether there was a significant difference in tumor volume between a treatment group and the control group. p<0.05 indicates a significant difference. Statistical analysis and graphing were both performed in the R language environment (version 3.3.1). All tests were two-tailed unless otherwise specified. A p value less than 0.05 was considered statistically significant.

[5] = A549 tumor-bearing mice after last administration, docetaxel 20, 1-Z00 20, 1-Z00-J 10 mg/kg i.v., mean ± standard deviation
[6] = female SD rats, single IV 10 mg/kg, docetaxel level in plasma, N=3
[7] = rat, female SD rats, single IV 10 mg/kg, docetaxel level in plasma, N=3
[8] = day 21 after administration began, docetaxel 20, 1-Z00 20, 1-Z00-J 10 mg/kg i.v. QW × 4

O=C(NS(=O)(=O)c1ccc(N[C@@H](CSc2ccccc2)C[C@@H]2CCCN2CCO)c(S(=O)(=O)C(F)(F)F)c1)c1ccc(N2CCC([C@@H](O)c3ccccc3-c3ccc(Cl)cc3)CC2)cc1 [Compound 3]
Day 2 (24 h after administration) PLT mean value (platelet (PLT); beagle dogs, 24 h after single IV 3 mg/kg, mean): 34.00 10^9/L
Day 1 (before administration) PLT mean value (platelet (PLT); beagle dogs, before single IV 3 mg/kg (baseline), mean): 355.00 10^9/L
Difference (%) between PLT count in dogs at 24 h after administration and that before administration (platelet (PLT); beagle dogs, single IV 3 mg/kg): −90.42%
mortality (animals died) (platelet (PLT); beagle dogs, single IV 3 mg/kg, 3 dogs with compound 3, 2 dogs per dendrimer): 2
Day 2 (24 h after administration) PLT (platelet (PLT); individual male beagle dog, 24 h after single IV 3 mg/kg): 34.00 10^9/L
Day 1 (before administration) PLT (platelet (PLT); individual male beagle dog, before single IV 3 mg/kg (baseline)): 355.00 10^9/L

CC(=O)O[C@@]12CO[C@@H]1C[C@H](O)[C@@]1(C)C(=O)[C@H](O)C3=C(C)[C@@H](OC(=O)[C@H](O)[C@@H](NC(=O)OC(C)(C)C)c4ccccc4)C[C@@](O)([C@@H](OC(=O)c4ccccc4)[C@H]21)C3(C)C [Docetaxel]
AUC(0-inf) ([1]; both sexes, dog): 2040 ng·h/mL
AUC(0-t) ([1]; both sexes, dog): 1890 ng·h/mL
clearance ([1]; both sexes, dog): 24.6 mL/min/kg
half-life ([1]; both sexes, dog): 13.5 h
Vd ([1]; both sexes, dog, read-out: Vdss): 7.39 L/kg
AUMC0-inf [1]: 10234 h·h·ng·mL^−1
AUMC0-t [1]: 3854 h·h·ng·mL^−1
Kel [1]: 0.0515 h⁻¹
Mean residence time (MRT) [1]: 5.02 h
decrease of white blood cells, lymphocytes and mononuclear cells compared to the vehicle control group (factor) ([2]; 20 mg/kg i.v.): 2-3
Eosinophil EO# [2, 5]: 0.02 ± 0.02 10^9/L
Lymphocyte LYMPH# [2, 5]: 1.58 ± 0.39 10^9/L
Mononuclear cell MONO# [2, 5]: 0.11 ± 0.02 10^9/L
Neutrophil NEUT# [2, 5]: 0.81 ± 0.47 10^9/L
White blood cell count WBC [2, 5]: 2.52 ± 0.08 10^9/L
AUMC0-inf [3, 6]: 2663.5 h · h · ng · mL^−1
AUMC0-t [3, 6]: 1669.3 h · h · ng · mL^−1
Kel [3, 6]: 0.3 h⁻¹
MRTIV [3, 6]: 1.8 h
AUC(0-inf) [3, 7]: 1480 ng·h/mL
AUC(0-t) [3, 7]: 1400 ng·h/mL
C0 [3, 7]: 2840 ng/mL
Cmax [3, 7]: 1990 ng/mL
clearance [3, 7]: 116 mL/min/kg
half-life [3, 7]: 2.1 h
Vd ([3]; rat, female SD rats, single IV 10 mg/kg, docetaxel level in plasma, N=3, read-out: VdSS): 12.1 L/kg
sustained-release effect, exposure and clearance (conclusion in words) ([3]; rats, IV 10 mg/kg): rapid plasma clearance and low exposure
Tumor volume ([4]; day 0 after administration began (baseline at grouping), mean ± standard error): 142.49 ± 6.17 mm^3
Tumor volume ([4]; day 3 after administration began, mean ± standard error): 187.27 ± 18.12 mm^3
Tumor volume ([4]; day 7 after administration began, mean ± standard error): 294.09 ± 32.19 mm^3
Tumor volume ([4]; day 10 after administration began, mean ± standard error): 362.73 ± 41.13 mm^3
Tumor volume ([4]; day 14 after administration began, mean ± standard error): 460.59 ± 68.72 mm^3
Tumor volume ([4]; day 17 after administration began, mean ± standard error): 502.25 ± 84.97 mm^3
T/C (relative tumor proliferation rate) [4, 8]: 33.76%
TGI (relative tumor inhibition) [4, 8]: 66.24%
Relative tumor volume ([4]; day 21 after administration began, docetaxel 20, 1-Z00 20, 1-Z00-J 10 mg/kg i.v. QW × 4, mean ± standard error): 3.87 ± 0.61
Tumor volume ([4]; day 21 after administration began, mean ± standard error): 564.93 mm^3 and 564.93 ± 108.61 mm^3
